According to patent US20160158317A1, “Antimicrobial Peptide Variants and Polynucleotides Encoding Same” (Adenium Biotech A/S, priority 2010, published 2016):
“And” between values parts separate entries of the source, which are not always exact repeats. Equal values may be shown once. Marks after values point to notes of the source that are not given here.

Tests used:
E. coli AID#172 [1] = experiment: Neutropenic murine peritonitis/sepsis model, dose-response and estimation of ED50 (Example 2); type: in vivo, Escherichia coli; design: key to Clinical score T = 0 hour / Clinical score T = 5 hours: Score 0: Healthy.; Score 1: Minor clinical signs of infection and inflammation e.g. observations of minor signs of distress or changed activity.; Score 2: Clear signs of infection like, social withdrawal, lack of curiosity, changed body position, piloerection, or changes in pattern of movement.; Score 3: Severe signs of infection like stiff movements, lack of curiosity, changed body position, piloerection, pain, or changes in pattern of movement.; Score 4: Severe pain and the mouse was sacrificed immediately to minimize the suffering of the animal.; Score 5: The mouse was dead
Description: The purpose of this study was to investigate the dose-response relationship following intravenous (i.v.) administration of a single dose of NZ17074 ranging from 0.16-12 mg/kg. The effect was tested against E. coli AID#172 in the neutropenic peritonitis model. Treatment with 40 mg/kg meropenem was included as a positive control group. The colony counts in blood and peritoneal fluid were determined at 5 hours after treatment.
The murine peritonitis/sepsis model is a well-recognized model for studies of antimicrobial activity as described by N. Frimodt-Møller and J. D. Knudsen in Handbook of Animal Models of Infection (1999), ed. by O. Zak & M. A. Sande, Academic Press, San Diego, US.
• 30 outbred, NMRI female mice, 25-30 grams (Harlan Scandinavia) • E. coli AID#172 from Statens Serum Institute, Copenhagen, Denmark. Clinical isolate from a human wound from 2003. Multiresistant (Ampicillin, Ceftazidime, Aztreonam, Gentamicin, Ciprofloxacin) • NZ17074 in Ringer Acetate, pH 6: 1.2 mg/ml, 6.0 ml. The solution was stored at 4° C. until use. Analyses of the dose formulations used were performed after completion of the in-life phase of the study and gave the following results:
The mice were rendered neutropenic by injecting 0.5 ml cyclophosphamide solution intraperitoneally 4 days (200 mg/kg) and 1 day (100 mg/kg) prior to inoculation.
Fresh overnight E. coli AID#172 colonies from a 5% Horse Blood Agar plate were suspended and diluted in sterile saline to approximately 2×10^6 CFU/ml. One hour before start of treatment (time −1 hr) mice were inoculated intraperitoneally with 0.5 ml of the E. coli suspension in the lateral lower quadrant of the abdomen. Approximately ½-1 hour after treatment, mice were treated orally with 45 microliters neurophen (20 mg ibuprofen/ml corresponding to 30 mg/kg) as a pain relief.
The mice were treated i.v. in the lateral tail vein over approximately 30 seconds with 10 ml/kg with a single dose of NZ17074, meropenem or vehicle at time 0 hour (see Table 1). The dosing was based on a mean weight of 30 g. Mice that weighed 28-32 g received 0.30 ml solution. Mice that weighed 27-28 g received 0.25 ml solution and mice that weighed 32.1-36 g received 0.35 ml solution.
(§1) The mice were observed during the study and scored 0-5 based on their behaviour and clinical signs. • Score 0: Healthy. • Score 1: Minor clinical signs of infection and inflammation e.g. observations of minor signs of distress or changed activity. • Score 2: Clear signs of infection like, social withdrawal, lack of curiosity, changed body position, piloerection, or changes in pattern of movement. • Score 3: Severe signs of infection like stiff movements, lack of curiosity, changed body position, piloerection, pain, or changes in pattern of movement. • Score 4: Severe pain and the mouse was sacrificed immediately to minimize the suffering of the animal. • Score 5: The mouse was dead.
Colony counts were determined from blood and peritoneal fluid at 0 and 5 hours. The mice were anaesthetized with CO2+O2 and blood was collected from axillary cutdown in 1.5 ml EDTA coated eppendorf tubes. The mice were sacrificed immediately after blood sampling and a total of 2 ml sterile saline was injected i.p. and the abdomen gently massaged before it was opened and fluid sampled with a pipette. Each sample was then 10 fold diluted in saline and 20-microliter spots were applied on blue agar plates. All agar plates were incubated 18-22 hours at 35° C. in ambient air.
The colony counts were performed at the start of treatment and 5 hours after treatment. The CFU numbers are log10 transformed before performing calculations.

E. coli AID#172 [2] = experiment: Neutropenic thigh infection model, dose-response and estimation of ED50 (Example 4); type: in vivo, Escherichia coli
Description: The purpose of this study was to investigate the dose-response relationship following intravenous (i.v.) administration of a single dose of NZ17074 ranging from 0.16-12 mg/kg. The effect was tested against E. coli AID#172 in the neutropenic thigh model. Treatment with 40 mg/kg meropenem was included as a positive control group. The colony counts in thighs were determined at 5 hours after treatment.
The thigh infection model is a well-recognized model for studies of antimicrobial effect and tissue penetration as described by S. Gudmundsson & H. Erlensdóttir: Handbook of Animal Models of Infection (1999), ed. by O. Zak & M. A. Sande, Academic Press, San Diego, US and in several publications. Reviewed by D. Andes & C. Craig: Animal model pharmacokinetics and pharmacodynamics: a critical review. International Journal of Antimicrobial Agents 19(4): 261-268.
• 40 outbred, NMRI female mice, 25-30 grams (Harlan Scandinavia) • E. coli AID#172 from Statens Serum Institute, Copenhagen, Denmark: Clinical isolate from a human wound from 2003. Multiresistant (Ampicillin, Ceftazidime, Aztreonam, Gentamicin, Ciprofloxacin) • NZ17074 in Ringer Acetate, pH 6: 1.2 mg/ml, 6.0 ml. The solution was stored at 4° C. until use. Analyses of the dose formulations used were performed after completion of the in-life phase of the study and gave the following results: […]
as §1
Colony counts were determined from thighs at 0 and 5 hours. […]

With `C[C@@H](O)[C@H]1C(=O)N2C(C(=O)O)=C(S[C@@H]3CN[C@H](C(=O)N(C)C)C3)[C@H](C)[C@H]12` [meropenem] the “CFU levels in blood and peritoneal fluid compared to vehicle” value (E. coli AID#172 [1]; 40 mg/kg i.v., 5 hours, blood p<0.05, peritoneal fluid p<0.01) was “significant reduction”, the “Clinical score T = 0 hour” value (E. coli AID#172 [1]; Meropenem 40 mg/kg single dose group, score at start of treatment, individual mice) was 1 and the “log10 CFU Mean Blood” value (E. coli AID#172 [1]; Meropenem 40 mg/kg single dose, blood, T = 5, group mean, p < 0.05 vs vehicle) was 2.38* log10 CFU/ml. The “log10 CFU Blood” value (E. coli AID#172 [1]; Meropenem 40 mg/kg single dose, blood, T = 5, individual mice) was 2.48 log10 CFU/ml and 1.70 log10 CFU/ml and 2.95 log10 CFU/ml, the “Clinical score T = 5 hours” value (E. coli AID#172 [1]; Meropenem 40 mg/kg single dose, individual mice) was 1 (2×) and 0 and the “log10 CFU mean PF” value (E. coli AID#172 [1]; Meropenem 40 mg/kg single dose, peritoneal fluid, T = 5, group mean, p < 0.01 vs vehicle) was 2.64** log10 CFU/ml. The “log10 CFU PF” value (E. coli AID#172 [1]; Meropenem 40 mg/kg single dose, peritoneal fluid, T = 5, individual mice) was 3.92 log10 CFU/ml and 1.70 log10 CFU/ml and 2.30 log10 CFU/ml, the “CFU levels in thigh compared to vehicle” value (E. coli AID#172 [2]; 40 mg/kg i.v., 5 hours) was “slight but not significant reduction” and the “log10 CFU thigh mean” value (E. coli AID#172 [2]; Meropenem 40 mg/kg single dose, thigh, T = 5, group mean without outlier, not significant vs vehicle) was 4.25 log10 CFU/ml. For the same compound, the “log10 CFU thigh” value (E. coli AID#172 [2]; Meropenem 40 mg/kg single dose, thigh, T = 5, individual mice, ¤ value excluded from mean as outlier) was 3.08¤ log10 CFU/ml and 3.81¤ log10 CFU/ml and 4.99 log10 CFU/ml and 3.94 log10 CFU/ml.
